Reference: publication PMC7570662, “In Vivo Pharmacokinetic Analysis Utilizing Non-Targeted and Targeted Mass Spectrometry and In Vitro Assay against Transient Receptor Potential Channels of Maobushisaishinto and Its Constituent Asiasari Radix” (Molecules, 2020)

Tests used:
[1] = Qualitative non-targeted LC-HRMS analysis of AR compounds in rat plasma after oral AR or MBST; assay type: in vivo; details: for Detection in plasma of rats treated with AR or MBST (non-targeted analysis): po
Description: Extract powders of AR or MBST were suspended in distilled water and orally administered to rats having fasted for approximately 16 h. The dose of AR was set at 2 g/kg, and the MBST doses were set at 1 and 2 g/kg. 1 g/kg MBST contained 578 µg/kg, 147 µg/kg, 226 µg/kg, 426 µg/kg asarinin, sesamin, methyl kakuol, and amide A, respectively. The doses were chosen based on a previous pharmacological study of MBST using rats.
According to previous pharmacokinetic studies of herbal medicines, many of the components were quickly absorbed into the bloodstream, thereby providing the rationale for a sampling time at 1 h. Blood was centrifuged at 1200× g at 4 °C for 30 min to obtain plasma; then, the sample was stored at −80 °C until LC-HRMS analysis. […]
The plasma samples were collected at 1 h after MBST administration in case of both the qualitative (non-targeted) analysis and the quantitative (targeted) analysis.
The plasma samples of AR- or MBST-treated rats collected at 1 h post-administration were pretreated by deproteinization using methanol before the LC-HRMS analysis as follows: 100 µL plasma sample was mixed with 500 µL methanol, and the resultant solution was vortexed for 2 min. The mixture was centrifuged at 7000× g at 4 °C for 5 min. The supernatant was dried using a centrifugal evaporator, and the dried residue was dissolved in 100 μL of the initial LC mobile phase which is composed of 0.1 vol% formic acid in water/acetonitrile (99.9/0.1, v/v) and recentrifuged at 7000× g at 4 °C for 5 min. Finally, a 5 μL aliquot of the supernatant was injected into the LC-HRMS system comprised of an Acquity Ultra-Performance Liquid Chromatography System (Waters, Milford, MA, USA) and a Xevo G2-XS quadrupole time-of-flight MS (Waters) and was chromatographically separated using an ACQUITY UPLC HSS T3 column (2.1 × 150 mm I.D., 1.8-μm particle size; Waters) with an ACQUITY UPLC HSS T3 VanGuard Pre-column (2.1 mm × 5 mm I.D., 1.8-μm particle size; Waters) at 40 °C. The mobile phase consisted of solution A (0.1% formic acid, v/v) and solution B (acetonitrile) with a gradient of solution B (0.1%, 0 min; 99%, 24 min; v/v) at a flow rate of 0.4 mL/min. The analysis of the mass spectrometer fit with an electrospray ionization probe with sensitivity mode was performed for both the positive and negative ion mode. The resolution of the mass spectrometer was set at >20,000. For MS^E experiments, two acquisition functions with different collision energies were created: a low-energy function with a collision energy of 6 eV and a high-energy function with collision energy ranging from 15 to 40 eV.

[2] = test system: LPS-induced NO production in RAW264.7 cells; test: LPS-induced NO production in RAW264.7 cells (Griess method); assay type: cell-based, mouse; details: LPS 3 µg/mL, 24 h, mean of two experiments
Description: The experimental methods and results about the measurement of extracellular NO production are described as following.
Mouse macrophage-like RAW264. 7 cells were obtained from the European Collection of Authenticated Cell Cultures and cultured in Dulbecco’s Modified Eagle Medium (DMEM) containing 10% fetal bovine serum (FBS). The cells were maintained at 37 °C in a humidified incubator with an […]
RAW264. 7 cells were seeded in 48-well plates (6.0 × 10^4 cells per well) and incubated overnight, and then, 1 or 10 µmol/L of test compounds and 3 µg/mL of lipopolysaccharide (LPS; from Escherichia coli 0111: B4, L3024; Sigma-Aldrich) were added into the medium. Following 24 h after addition, 100 µL of conditioned media were collected and mixed with equal volume of Griess reagent (G4410; Sigma-Aldrich), and the mixture was incubated at room temperature for 15 min. Finally, absorbance was determined at 540 nm wave. Nitrite concentrations were quantified using a calibration curve obtained from a dilute solution of NaNO2. […]
production at concentrations of 1 or 10 µmol/L.
Table S3. Effect of Asiasari Radix ingredients on LPS -induced NO production.
Test Compound (% of LPS Control)
Amide A: (2E,4E,8Z,10E)-N-isobutyl-2,4,8,10-dodecatetraenamide. Each test compound (1 or 10 µmol/L) and lipopolysaccharide (LPS, 3 µg/mL) were added into a culture of RAW264. 7 cells. Following 24 h of substance addition, nitric oxide (NO) released in the cell medium was measured by Griess method. Percentage of NO production was calculated using the following equation: (nitrite concentration after treatment with test compound and LPS/nitrite concentration after treatment with LPS only) × 100. Each value represents the mean of two independent experiments

[3] = test system: LPS-induced NO production in BV-2 microglial cells; design: method as in PMID 18293448; details: cited from earlier work

Row | SMILES | Metabolites found in AR- or MBST-treated plasma ([1]; rat, in vivo) | NO Production (% of LPS Control) ([2]; 1 µmol/L test compound) | NO Production (% of LPS Control) ([2]; 10 µmol/L test compound) | Effect on LPS-induced NO production in BV-2 microglial cells [3] | Detection in plasma of rats treated with AR or MBST (non-targeted analysis) ([1]; rat, in vivo) | AR-Treated Rat Plasma (detection of compound) ([1]; rat plasma 1 h after oral 2 g/kg AR, n = 1, LC-HRMS) | MBST-Treated Rat Plasma (detection of compound) ([1]; rat plasma 1 h after oral 2 g/kg MBST, n = 3, LC-HRMS) | Metabolites found in AR- or MBST-treated plasma ([1]; rat plasma, non-targeted LC-HRMS, phase I and II metabolite exploration)
1 | C/C=C/C=C\CC/C=C/C=C/C(=O)NCC(C)C [Amide A, (2E,4E,8Z,10E)-N-isobutyl-2,4,8,10-dodecatetraenamide] | metabolized into an alkylated and a water adducted + alkylated form | 92 % of LPS Control | 82 % of LPS Control | inhibitory effect | – | – | – | –
2 | c1cc2c(cc1[C@H]1OC[C@H]3[C@@H]1CO[C@H]3c1ccc3c(c1)OCO3)OCO2 [Asarinin, (−)-Asarinin] | – | 99 % of LPS Control | 97 % of LPS Control | – | not detected | – | – | –
3 | CCC(=O)c1cc2c(cc1OC)OCO2 [Methyl kakuol] | – | 102 % of LPS Control | 93 % of LPS Control | – | – | + (The number of plus signs represents the sample number in which the compound was detected among AR-treated rat plasma (n = 1) and MBST-treated rat plasma (n = 3)) | + + + (The number of plus signs represents the sample number in which the compound was detected among AR-treated rat plasma (n = 1) and MBST-treated rat plasma (n = 3)) | metabolized into a sulfate conjugate and a dehydrogenated + sulfate conjugate form
4 | c1cc2c(cc1[C@H]1OC[C@H]3[C@@H]1CO[C@@H]3c1ccc3c(c1)OCO3)OCO2 [Sesamin] | – | 96 % of LPS Control | 78 % of LPS Control | inhibitory effect | not detected | – | – | –
